According to patent US12202818B2, “Compounds and methods for CD73 modulation and indications therefor” (Opna Bio SA, priority 2020, dated 2025):
pIC50: −log10 of the molar value.

Tests used:
human CD73 = target: T1, human CD73 (Homo sapiens, UniProt P21589); assay: Inhibitor activity against CD73 in cell based assay (CD73 expressing CHO-K1 cells); conditions: CHO-K1 cells expressing human CD73, 150 μM AMP, 4 hours of incubation; read-out: CHO-K1 CELL_VARIANT: CD73 IC50
T1 construct: expressed in transfected cells
T1 sequence (P21589 27-549): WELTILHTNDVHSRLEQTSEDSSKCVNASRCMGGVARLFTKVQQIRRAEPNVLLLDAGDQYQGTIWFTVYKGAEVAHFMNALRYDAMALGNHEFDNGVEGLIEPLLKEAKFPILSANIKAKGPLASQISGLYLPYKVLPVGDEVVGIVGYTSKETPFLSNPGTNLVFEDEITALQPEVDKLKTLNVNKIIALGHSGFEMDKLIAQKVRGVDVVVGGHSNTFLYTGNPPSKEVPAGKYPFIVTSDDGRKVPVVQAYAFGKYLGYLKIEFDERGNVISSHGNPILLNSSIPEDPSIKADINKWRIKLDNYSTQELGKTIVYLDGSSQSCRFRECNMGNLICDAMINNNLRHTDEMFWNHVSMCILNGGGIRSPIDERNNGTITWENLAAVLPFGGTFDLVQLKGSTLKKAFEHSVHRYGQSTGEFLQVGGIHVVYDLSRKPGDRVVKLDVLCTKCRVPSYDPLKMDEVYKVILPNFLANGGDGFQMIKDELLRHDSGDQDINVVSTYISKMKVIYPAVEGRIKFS
How it was run: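 Stable human CD73 CHO-K1 cells, 1×10^4/well, exposed to an 8-point 1:3 compound series (top 10 μM, 0.2% DMSO) plus 150 μM AMP for 4 h. Remaining AMP in the supernatant was read by CellTiter-Glo 2.0 luminescence with 1 μM ATP after 30 min at room temperature. IC50 came from nonlinear regression of % inhibition against cell and media-only controls.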

[1] = target: T2, Human CD73 (amino acid residues 27-549) (Homo sapiens, UniProt P21589); assay: CD73 enzymatic assay (luciferase-based indirect assay, CellTiter-Glo); assay type: biochemical; conditions: 0.4 nM CD73, 150 μM AMP, 1 hour at room temperature
T2 construct: Human CD73 (amino acid residues 27-549); His tag (N); made in house; host or cells: E. coli
T2 sequence (P21589 27-549): T1 sequence (P21589 27-549)
How it was run: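 N-His human CD73 (27-549) expressed in E. coli, 0.4 nM, incubated with 150 μM AMP and compound in 50 mM HEPES pH 7.4, 0.01% Tween-20, 1 h at RT. Remaining AMP read via CellTiter-Glo luminescence with 1 μM ATP after 30 min; IC50 from nonlinear regression of % inhibition.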

SMILES	pIC50 (human CD73)	pIC50 [1]
N#CC1CC2CCC(C1)N2c1ccnc(O[C@@H]2CCN(c3cn[nH]c(=O)c3Cl)C2)c1 (stereo partly drawn) [P-0049, 8-(2-(((R)-1-(5-chloro-6-oxo-1,6-dihydropyridazin-4-yl)pyrrolidin-3-yl)oxy)pyridin-4-yl)-8-azabicyclo[3.2.1]octane-3-carbonitrile]	5.00 to 9.00	5.00 to 9.00
COC(=O)Cc1ccc(-c2ccnc(O[C@@H]3CCN(c4cn[nH]c(=O)c4Cl)C3)c2)c(F)c1 [P-0218, methyl (R)-2-(4-(2-((1-(5-chloro-6-oxo-1,6-dihydropyridazin-4-yl)pyrrolidin-3-yl)oxy)pyridin-4-yl)-3-fluorophenyl)acetate]	5.00 to 9.00	5.00 to 9.00
O=c1[nH]ncc(N2CC[C@@H](Oc3cc(C4=CCCC4)ccn3)C2)c1Cl [P-0084, (R)-4-chloro-5-(3-((4-(cyclopent-1-en-1-yl)pyridin-2-yl)oxy)pyrrolidin-1-yl)pyridazin-3(2H)-one]	5.00 to 9.00	5.00 to 9.00
Cc1nn(C)c(C)c1-c1cc(O[C@@H]2CCN(c3cn[nH]c(=O)c3Cl)C2)c(F)cn1 [P-0117, (R)-4-chloro-5-(3-((5-fluoro-2-(1,3,5-trimethyl-1H-pyrazol-4-yl)pyridin-4-yl)oxy)pyrrolidin-1-yl)pyridazin-3(2H)-one]	5.00 to 9.00	5.00 to 9.00
Cc1c(C)n(-c2cc(F)nc(O[C@@H]3CCN(c4cn[nH]c(=O)c4Cl)C3)c2)c2ccccc12 [P-0153, (R)-4-chloro-5-(3-((4-(2,3-dimethyl-1H-indol-1-yl)-6-fluoropyridin-2-yl)oxy)pyrrolidin-1-yl)pyridazin-3(2H)-one]	5.00 to 9.00	5.00 to 9.00
Cc1nn(CC2(F)COC2)c(C)c1-c1cc(F)nc(O[C@@H]2CCN(c3cn[nH]c(=O)c3Cl)C2)c1 [P-0133, (R)-4-chloro-5-(3-((6-fluoro-4-(1-((3-fluorooxetan-3-yl)methyl)-3,5-dimethyl-1H-pyrazol-4-yl)pyridin-2-yl)oxy)pyrrolidin-1-yl)pyridazin-3(2H)-one]	5.00 to 9.00	5.00 to 9.00
CCCNS(=O)(=O)c1ccc(-c2ccnc(O[C@@H]3CCN(c4cn[nH]c(=O)c4Cl)C3)c2)cc1 [P-0223, (R)-4-(2-((1-(5-chloro-6-oxo-1,6-dihydropyridazin-4-yl)pyrrolidin-3-yl)oxy)pyridin-4-yl)-N-propylbenzenesulfonamide]	5.00 to 9.00	5.00 to 9.00
CC1(C)CC=C(c2ccnc(O[C@@H]3CCN(c4cn[nH]c(=O)c4Cl)C3)c2)CC1 [P-0099, (R)-4-chloro-5-(3-((4-(4,4-dimethylcyclohex-1-en-1-yl)pyridin-2-yl)oxy)pyrrolidin-1-yl)pyridazin-3(2H)-one]	5.00 to 9.00	5.00 to 9.00
O=C(NC1CCN(c2ccnc(O[C@@H]3CCN(c4cn[nH]c(=O)c4Cl)C3)c2)CC1)C1CC1 [P-0222, (R)-N-(1-(2-((1-(5-chloro-6-oxo-1,6-dihydropyridazin-4-yl)pyrrolidin-3-yl)oxy)pyridin-4-yl)piperidin-4-yl)cyclopropanecarboxamide]	5.00 to 9.00	5.00 to 9.00
CC1CNCCC1c1ccnc(O[C@@H]2CCN(c3cn[nH]c(=O)c3Cl)C2)c1 (stereo partly drawn) [P-0009, 4-chloro-5-((3R)-3-((4-(3-methylpiperidin-4-yl)pyridin-2-yl)oxy)pyrrolidin-1-yl)pyridazin-3(2H)-one]	5.00 to 9.00	5.00 to 9.00
O=c1[nH]ncc(N2CC[C@@H](Oc3cc(C4=CCOCC4)ccn3)C2)c1Cl [P-0078, (R)-4-chloro-5-(3-((4-(3,6-dihydro-2H-pyran-4-yl)pyridin-2-yl)oxy)pyrrolidin-1-yl)pyridazin-3(2H)-one]	5.00 to 9.00	5.00 to 9.00
CCCNS(=O)(=O)N1CCN(c2ccnc(O[C@@H]3CCN(c4cn[nH]c(=O)c4Cl)C3)c2)CC1 [P-0226, (R)-4-(2-((1-(5-chloro-6-oxo-1,6-dihydropyridazin-4-yl)pyrrolidin-3-yl)oxy)pyridin-4-yl)-N-propylpiperazine-1-sulfonamide]	5.00 to 9.00	5.00 to 9.00
Cc1nn(CC(O)C(F)(F)F)c(C)c1-c1ccnc(O[C@@H]2CCN(c3cn[nH]c(=O)c3Cl)C2)c1 (stereo partly drawn) [P-0039, 4-chloro-5-((3R)-3-((4-(3,5-dimethyl-1-(3,3,3-trifluoro-2-hydroxypropyl)-1H-pyrazol-4-yl)pyridin-2-yl)oxy)pyrrolidin-1-yl)pyridazin-3(2H)-one]	5.00 to 9.00	5.00 to 9.00
O=C(Nc1ccc(-c2ccnc(O[C@@H]3CCN(c4cn[nH]c(=O)c4Cl)C3)c2)c(F)c1)C1CCC1 [P-0212, (R)-N-(4-(2-((1-(5-chloro-6-oxo-1,6-dihydropyridazin-4-yl)pyrrolidin-3-yl)oxy)pyridin-4-yl)-3-fluorophenyl)cyclobutane-carboxamide]	5.00 to 9.00	5.00 to 9.00
Cc1nn(C2(CC#N)COC2)c(C)c1-c1ccnc(O[C@@H]2CCN(c3cn[nH]c(=O)c3Cl)C2)c1 [P-0033, (R)-2-(3-(4-(2-((1-(5-chloro-6-oxo-1,6-dihydropyridazin-4-yl)pyrrolidin-3-yl)oxy)pyridin-4-yl)-3,5-dimethyl-1H-pyrazol-1-yl)oxetan-3-yl)acetonitrile]	5.00 to 9.00	5.00 to 9.00

Continued, values first:

pIC50 (human CD73)	pIC50 [1]	SMILES
5.00 to 9.00	5.00 to 9.00	Cc1nn(CC2CCCOC2)c(C)c1-c1ccnc(O[C@@H]2CCN(c3cn[nH]c(=O)c3Cl)C2)c1 (stereo partly drawn) [P-0043, 4-chloro-5-((3R)-3-((4-(3,5-dimethyl-1-((tetrahydro-2H-pyran-3-yl)methyl)-1H-pyrazol-4-yl)pyridin-2-yl)oxy)pyrrolidin-1-yl)pyridazin-3(2H)-one]
5.00 to 9.00	5.00 to 9.00	Cc1nn(C2CCC2)c(C)c1-c1ccnc(O[C@@H]2CCN(c3cn[nH]c(=O)c3Cl)C2)c1 [P-0026, (R)-4-chloro-5-(3-((4-(1-cyclobutyl-3,5-dimethyl-1H-pyrazol-4-yl)pyridin-2-yl)oxy)pyrrolidin-1-yl)pyridazin-3(2H)-one]
5.00 to 9.00	5.00 to 9.00	Cc1nn(CC(=O)O)c(C)c1-c1ccnc(O[C@@H]2CCN(c3cn[nH]c(=O)c3Cl)C2)c1 [P-0045, (R)-2-(4-(2-((1-(5-chloro-6-oxo-1,6-dihydropyridazin-4-yl)pyrrolidin-3-yl)oxy)pyridin-4-yl)-3,5-dimethyl-1H-pyrazol-1-yl)acetic acid]
5.00 to 9.00	5.00 to 9.00	O=c1[nH]ncc(N2CC[C@@H](Oc3cc(-c4ccc(C(F)(F)F)cc4)ccn3)C2)c1Cl [P-0236, (R)-4-chloro-5-(3-((4-(4-(trifluoromethyl)phenyl)pyridin-2-yl)oxy)pyrrolidin-1-yl)pyridazin-3(2H)-one]
5.00 to 9.00	5.00 to 9.00	Cc1nn(C)cc1-c1cccc(O[C@@H]2CCN(c3cn[nH]c(=O)c3Cl)C2)c1 [P-0197, (R)-4-chloro-5-(3-(3-(1,3-dimethyl-1H-pyrazol-4-yl)phenoxy)pyrrolidin-1-yl)pyridazin-3(2H)-one]
5.00 to 9.00	5.00 to 9.00	N#CC1CC=C(c2ccnc(O[C@@H]3CCN(c4cn[nH]c(=O)c4Cl)C3)c2)CC1 (stereo partly drawn) [P-0100, 4-(2-(((R)-1-(5-chloro-6-oxo-1,6-dihydropyridazin-4-yl)pyrrolidin-3-yl)oxy)pyridin-4-yl)cyclohex-3-ene-1-carbonitrile]
5.00 to 9.00	5.00 to 9.00	O=c1[nH]ncc(N2CC[C@@H](Oc3cc(C4CCN(CC(O)C(F)(F)F)CC4)ccn3)C2)c1Cl (stereo partly drawn) [P-0011, 4-chloro-5-((3R)-3-((4-(1-(3,3,3-trifluoro-2-hydroxypropyl)piperidin-4-yl)pyridin-2-yl)oxy)pyrrolidin-1-yl)pyridazin-3(2H)-one]
5.00 to 9.00	5.00 to 9.00	Cc1nn(C)c(C)c1-c1cc(O[C@H]2CN(c3cn[nH]c(=O)c3Cl)C[C@@H]2F)ccn1 [P-0121, 4-chloro-5-((3S,4S)-3-fluoro-4-((2-(1,3,5-trimethyl-1H-pyrazol-4-yl)pyridin-4-yl)oxy)pyrrolidin-1-yl)pyridazin-3(2H)-one]
5.00 to 9.00	5.00 to 9.00	CCCNS(=O)(=O)c1ccc(-c2ccnc(O[C@@H]3CCN(c4cn[nH]c(=O)c4Cl)C3)c2)c(Cl)c1 [P-0233, (R)-3-chloro-4-(2-((1-(5-chloro-6-oxo-1,6-dihydropyridazin-4-yl)pyrrolidin-3-yl)oxy)pyridin-4-yl)-N-propylbenzenesulfonamide]
5.00 to 9.00	5.00 to 9.00	Cc1nn(CCO)c(C)c1-c1cc(F)nc(O[C@@H]2CCN(c3cn[nH]c(=O)c3Cl)C2)c1 [P-0192, (R)-4-chloro-5-(3-((6-fluoro-4-(1-(2-hydroxyethyl)-3,5-dimethyl-1H-pyrazol-4-yl)pyridin-2-yl)oxy)pyrrolidin-1-yl)pyridazin-3(2H)-one]
